{
  "source": "patent EP0642343B1",
  "about": "“Acridine carboxamides for the treatment of cancer” (XENOVA LIMITED, priority 1992, dated 1993)",
  "key": {"[1]": {"test_system": "a variety of human and mouse cell lines and in a panel of 60 human cell lines", "test": "Cytotoxicity under continuous drug exposure (growth inhibition)", "format": "cell-based", "conditions": "continuous drug exposure over approx. 5 cell doubling times; range over the cell lines", "procedure": "The latter value compared with 2 µM for the 4-pyridyl-quinoline analogue, 0.76 µM for amsacrine, 0.1 µM for the amsacrine analogue 4'-(9-[4-[N-methylcarboxamido]-5-methyl]-acridinylamino)-methanesulphon-m-anisidide (\"CI-921\") and 81 µM for etoposide."}, "[2]": {"test_system": "advanced colon 38 tumours", "test": "Tumour growth delay, advanced subcutaneous colon 38 tumours in mice", "format": "in vivo", "procedure": "(§1) Colon 38 carcinoma was obtained from the Mason Research Institute (Worchester, MA, USA) and was grown in BDF1 hosts. Tumour fragments (1 mm^3) were implanted subcutaneously in anaesthetised mice. Tumours had grown to the appropriate size 9 days after implantation. A melanoma tumour line (WADH) was developed in the Cancer Research Laboratory. Tumour cells were grown in culture and 1 x 10^6 cells were implanted intradermally into the flank of nude (C57BI/J genetic background) mice. Mice were grown under sterile surroundings until tumours were of appropriate size.\n(§2) Tumours were measured 3x (colon 38) or 2x (xeno-graft) weekly with callipers and tumour volumes calculated as 0.52a^2b, where a and b were the minor and major tumour axes. Tumour growth delays were measured at a time when tumour volumes of treated and control animals had increased by 4-fold.\nThe effects of five compounds, • (i) DACA • (ii) N-[2-(dimethylamino)ethyl]-9-methoxyphen-azine-1-carboxamide (compound 28 of J. Med. Chem., 1987, 30, 843-851), • (iii) N-[2-(dimethylamino) ethyl]-2-phenylquino-line-8-carboxamide (compound 6 of J. Med. Chem. 1988, 31, 1048-1052), • (iv) N-[2-(dimethylamino)ethyl]-2-(4-pyridyl)-guinoline-8-carboxamide (compound 18 of J. Med. Chem., 1989, 32, 396-401), and • (v) N-[2-(dimethylamino)ethyl]-9-bromo-dibenzo-[1,4]-dioxin-1-carboxamide (compound 20 of J. Med. Chem. 1992, 35, 258-266) on the growth of advanced colon 38 tumours in mice was investigated by implanting tumour fragments subcutaneously and allowing them to grow until they had reached a diameter of 5-8 mm."}, "[3]": {"test_system": "human melanoma cell line designated WADH", "test": "Tumour growth delay, human melanoma xenograft in nude mice", "format": "in vivo, nude (athymic) mice", "conditions": "tumours 4-7 mm; ip divided dose 2 x 100 mg/kg at 0 and 60 min, repeated after 7 days", "procedure": "as §1, §2\nA further experiment was carried out using human melanoma line, implanted subcutaneously in nude (athymic) mice using an inoculation of one million cells of a human melanoma cell line designated WADH. Treatment was started when the tumours were 4-7 mm in diameter. DACA was administered ip as a divided dose (2 x 100 mg/kg body weight at 0 and 60 min) and a second similar administra-tion (2 x 100 mg/kg) was given after 7 days. A growth delay of 30 days was obtained (Figure 6)."}, "CEM-CCRF": {"test_system": "CEM-CCRF", "test": "Growth inhibition of leukaemia line, continuous exposure, MTT staining", "format": "cell-based", "conditions": "Homo sapiens", "procedure": "(§3) Tumour cell lines were cultured in 96-well plates. […] Primary cultures were incubated at 37°C in sealed perspex boxes containing a humidified atmosphere of 5% CO2 and 5% O2 in nitrogen for 7 days. 5-Methyl-[^3H]-thymidine (20 Ci.mmol^-1; 0.04 µCi per well), thymidine and 5-fluorodeoxyuridine (each at final concentrations of 0.5 µM) were added in medium to cultures (20 µl per well) 24 h before terminating the cultures.\n(§4) 1989, 81:1088-1092, where growth, as indicated by staining or thymidine incorporation, corresponded to 50% of that of the control cultures.\n(§5) The effect of DACA on the growth of cultured cells was assessed by continuous drug exposure. […] These values were similar to those of other human leukaemia cell lines, which ranged from 290 to 760 nM (CEM-CCRF, 410 nM; MOLT-4, 290 nM; Daudi, 400 nM; Raji, 370 nM, U937, 590 nM; HL-60, 620 nM; K-562, 760 nM). Four multidrug-resistant cell lines, developed from JL and JB1 by in vitro exposure to increasing concentrations of doxorubicin (LD and B1D) or amsacrine (LA and B1A) (Finlay G.J., et al., J. Natl. Cancer Inst. 1990, 82, 662-667, Snow K., et al., Br. J. Cancer 1991, 63, 17-28) were tested."}, "Daudi": {"test_system": "Daudi", "test": "Growth inhibition of leukaemia line, continuous exposure, MTT staining", "format": "cell-based", "conditions": "Homo sapiens", "procedure": "as §3, §4, §5"}, "HL-60": {"test_system": "HL-60", "test": "Growth inhibition of leukaemia line, continuous exposure, MTT staining", "format": "cell-based", "conditions": "Homo sapiens", "procedure": "as §3, §4, §5"}, "K-562": {"test_system": "K-562", "test": "Growth inhibition of leukaemia line, continuous exposure, MTT staining", "format": "cell-based", "conditions": "Homo sapiens, K562", "procedure": "as §3, §4, §5"}, "MOLT-4": {"test_system": "MOLT-4", "test": "Growth inhibition of leukaemia line, continuous exposure, MTT staining", "format": "cell-based", "conditions": "Homo sapiens", "procedure": "as §3, §4, §5"}, "Raji": {"test_system": "Raji", "test": "Growth inhibition of leukaemia line, continuous exposure, MTT staining", "format": "cell-based", "conditions": "Homo sapiens", "procedure": "as §3, §4, §5"}, "U937": {"test_system": "U937", "test": "Growth inhibition of leukaemia line, continuous exposure, MTT staining", "format": "cell-based", "conditions": "Homo sapiens, U-937", "procedure": "as §3, §4, §5"}, "[4]": {"test_system": "human Jurkat T cell leukaemia line, diploid (L)", "test": "Growth inhibition of leukaemia line, continuous exposure, MTT staining", "format": "cell-based", "conditions": "continuous drug exposure", "procedure": "as §3, §4, §5"}, "[5]": {"test_system": "human Jurkat T cell leukaemia line, tetraploid (B1)", "test": "Growth inhibition of leukaemia line, continuous exposure, MTT staining", "format": "cell-based", "conditions": "continuous drug exposure", "procedure": "as §3, §4, §5"}},
  "note": "Values joined by “and” are separate entries in the source; they are usually repeats but may differ in a detail not shown here. Equal values may be shown once.",
  "data": [
    {"smiles": "CN(C)CCNC(=O)c1cccc2cc3ccccc3nc12", "note": "[DACA, N-[2-(dimethylamino)ethyl]acridine-4-carboxamide]", "values": [
      {"measurement": "IC50", "setting": "[1]", "result": "0.09 to 3.4", "unit": "µM"},
      {"measurement": "Growth delay", "setting": "[2]; 100mg/kg each injection, ip, 2 doses, 0, 60 min, listed as (i)", "result": "10 days and 12 days"},
      {"measurement": "Growth delay", "setting": "[2]; 4 injections at 30 minute intervals, 180 + 120 + 120 + 120 µmol/kg, q7 days x 3", "result": 21, "unit": "days"},
      {"measurement": "Growth delay", "setting": "[2]; day 11 after implantation, 3 injections at 4-day intervals", "result": 4, "unit": "days"},
      {"measurement": "Growth delay", "setting": "[2]; i.p. single maximum tolerated dose 150 mg/kg body weight, Figure 5", "result": 5, "unit": "days"},
      {"measurement": "Growth delay", "setting": "[2]; repetition of divided doses (200 mg/kg), Figure 5", "result": 23, "unit": "days"},
      {"measurement": "Growth delay", "setting": "[2]; total dose 100 (mg/kg) ip, single dose (SD)", "result": 4, "unit": "days"},
      {"measurement": "Growth delay", "setting": "[2]; total dose 150 ip, 2 doses, 0, 60 min", "result": 5, "unit": "days"},
      {"measurement": "Growth delay", "setting": "[2]; total dose 150 ip, SD", "result": 5, "unit": "days"},
      {"measurement": "Growth delay", "setting": "[2]; total dose 150x3 ip, SD every week x 3", "result": 7, "unit": "days"},
      {"measurement": "Growth delay", "setting": "[2]; total dose 200 ip, 2 doses, 0, 30 min", "result": 7, "unit": "days"},
      {"measurement": "Growth delay", "setting": "[2]; total dose 200 ip, 2 doses, 0, 60 min (2 expts)", "result": "10 days and 12 days"},
      {"measurement": "Growth delay", "setting": "[2]; total dose 200 ip, 2 doses, 0, 24 hours", "result": 6, "unit": "days"},
      {"measurement": "Growth delay", "setting": "[2]; total dose 200 ip, 4 doses, 0, 30, 60, 90 min (65 + 45 + 45 + 45 mg/kg)", "result": 6, "unit": "days"},
      {"measurement": "Growth delay (days)", "setting": "[2]; total dose 200 ip, SD", "result": "toxic"},
      {"measurement": "Growth delay", "setting": "[2]; total dose 200 iv, 1 hour infusion", "result": 7, "unit": "days"},
      {"measurement": "Growth delay", "setting": "[2]; total dose 200 iv, 3 hour infusion", "result": 6.5, "unit": "days"},
      {"measurement": "Growth delay", "setting": "[2]; total dose 200x3 ip, (4 doses, 0, 30, 60, 90)x3", "result": 23, "unit": "days"},
      {"measurement": "Growth delay", "setting": "[2]; tumour 5-8 mm, after adjustment of the administration schedule", "result": "more than 21 days"},
      {"measurement": "Growth delay", "setting": "[2]; tumour 5-8 mm, intermittent schedule 270 mg/kg q7 days x 3", "result": 3, "unit": "days"},
      {"measurement": "Growth delay", "setting": "[2]; tumour 5-8 mm, intermittent schedule 400 mg/kg q7 days x 3", "result": 7, "unit": "days"},
      {"measurement": "Growth delay", "setting": "[3]", "result": 30, "unit": "days"},
      {"measurement": "IC50", "setting": "CEM-CCRF", "result": 0.41, "unit": "µM"},
      {"measurement": "IC50", "setting": "Daudi", "result": 0.4, "unit": "µM"},
      {"measurement": "IC50", "setting": "HL-60", "result": 0.62, "unit": "µM"},
      {"measurement": "IC50", "setting": "K-562", "result": 0.76, "unit": "µM"},
      {"measurement": "IC50", "setting": "MOLT-4", "result": 0.29, "unit": "µM"},
      {"measurement": "IC50", "setting": "Raji", "result": 0.37, "unit": "µM"},
      {"measurement": "IC50", "setting": "U937", "result": 0.59, "unit": "µM"},
      {"measurement": "IC50", "setting": "[4]", "result": 0.38, "unit": "µM"},
      {"measurement": "IC50", "setting": "[5]", "result": 0.38, "unit": "µM"}
    ]}
  ]
}
